55 compounds from US9802899B2, “Heterocyclic compounds as pesticides” (BAYER CROPSCIENCE AG, priority 2012, dated 2017) can be followed below.

The term log P denotes a log measure of how a compound divides between an organic and an aqueous phase. Lower therefore signals a more hydrophilic compound.

This data set can be described thus: Determination of the log P values by HPLC (formic acid method). Conditions: reversed-phase column (C 18), acidic range (pH 3.4), 55° C. The class given is physicochemical. The protocol:
1) Description of Method for Determination of the Log P Values (Formic Acid Method)
Eluents for determination in the acidic range (pH 3.4):
Eluent A: acetonitrile+1 ml of formic acid/liter. Eluent B: water+0.9 ml of formic acid/liter.
The lambda max values were determined in the maxima of the chromatographic signals using the UV spectra from 200 nm to 400 nm.

On to `Cc1onc(C(=O)Nc2ccn(-c3c(F)cccc3F)n2)c1C` [Compound I-1-297], for which the “log P” value was found to be 2.76.

For `Cc1nn(C)c(C(=O)Nc2ccn(-c3c(F)cccc3F)n2)c1Br` [Compound I-1-298], the “log P” value is 2.76.

Regarding `CCn1ncc(Br)c1C(=O)Nc1ccn(-c2c(F)cccc2F)n1` [Compound I-1-299], the “log P” value is on record as 2.84.

With `CCn1nc(C)c(Br)c1C(=O)Nc1ccn(-c2c(F)cccc2F)n1` [Compound I-1-300], the log partition coefficient (log P) was determined as 3.15.

As to `Cn1cc(Br)c(C(=O)Nc2ccn(-c3c(F)cccc3F)n2)n1` [Compound I-1-301], the lipophilicity (log P) is on record as 2.37.

For `Cn1ncc(Br)c1C(=O)Nc1ccn(-c2c(F)cccc2F)n1` [Compound I-1-302], the “log P” value is given as 2.50.

On to `Cn1nc(C(F)(F)F)c(Br)c1C(=O)Nc1ccn(-c2c(F)cccc2F)n1` [Compound I-1-303], for which the “log P” value turned out to be 3.37.

Regarding `Cc1oc(C)c(C(=O)Nc2ccn(-c3c(F)cccc3F)n2)c1Br` [Compound I-1-304], the “log P” value came to 3.38.

As for `O=C(Nc1ccn(-c2c(F)cccc2F)n1)c1cscc1Br` [Compound I-1-305], the “log P” value stood at 2.61.

For the compound `Cc1nn(C(F)F)c(C(=O)Nc2ccn(-c3c(F)cccc3F)n2)c1Cl` [Compound I-1-306], the “log P” value came to 3.11.

As to `Cc1nn(C)c(C(=O)Nc2ccn(-c3c(F)cccc3F)n2)c1Cl` [Compound I-1-307], the log partition coefficient (log P) was 2.78.

Regarding `CCn1ncc(Cl)c1C(=O)Nc1ccn(-c2c(F)cccc2F)n1` [Compound I-1-308], the “log P” value came out at 2.61.

As for `CCn1nc(C)c(Cl)c1C(=O)Nc1ccn(-c2c(F)cccc2F)n1` [Compound I-1-309], the “log P” value was 3.15.

In the case of `CC(C)n1nc([N+](=O)[O-])c(Cl)c1C(=O)Nc1ccn(-c2c(F)cccc2F)n1` [Compound I-1-310], the “log P” value is reported as 3.28.

Turning to `Cn1ncc(Cl)c1C(=O)Nc1ccn(-c2c(F)cccc2F)n1` [Compound I-1-311], the “log P” value worked out at 2.46.

As to `Cn1nc([N+](=O)[O-])c(Cl)c1C(=O)Nc1ccn(-c2c(F)cccc2F)n1` [Compound I-1-312], the “log P” value was 2.70.

Consider `CCCc1nn(C)c(C(=O)Nc2ccn(-c3c(F)cccc3F)n2)c1Cl` [Compound I-1-313], for which the “log P” value turned out to be 3.68.

Take `CCCc1c(Cl)c(C(=O)Nc2ccn(-c3c(F)cccc3F)n2)nn1C` [Compound I-1-314]: the “log P” value is given as 3.32.

`CCCn1cc(Cl)c(C(=O)Nc2ccn(-c3c(F)cccc3F)n2)n1` [Compound I-1-315]: the lipophilicity (log P) came to 3.05.

Regarding `CCc1nn(C)c(C(=O)Nc2ccn(-c3c(F)cccc3F)n2)c1Cl` [Compound I-1-316], the “log P” value amounted to 3.24.

On to `Cn1nc(C(F)(F)C(F)(F)F)c(C#N)c1C(=O)Nc1ccn(-c2c(F)cccc2F)n1` [Compound I-1-317], for which the “log P” value is recorded as 3.37.

For `Cn1nc(C(F)(F)F)c(C#N)c1C(=O)Nc1ccn(-c2c(F)cccc2F)n1` [Compound I-1-318], the “log P” value stood at 2.98.

In the case of `O=C(Nc1ccn(-c2c(F)cccc2F)n1)c1snnc1C1CC1` [Compound I-1-319], the log partition coefficient (log P) was determined as 2.68.

Consider `Cc1nn(C)c(C(=O)Nc2ccn(-c3c(F)cccc3F)n2)c1F` [Compound I-1-320], for which the “log P” value turned out to be 2.20.

As to `Cn1ncc(F)c1C(=O)Nc1ccn(-c2c(F)cccc2F)n1` [Compound I-1-321], the log partition coefficient (log P) is 2.27.

Consider `O=C(Nc1ccn(-c2c(F)cccc2F)n1)c1ccc(F)cc1C(F)(F)F` [Compound I-1-322], for which the “log P” value is given as 2.80.

For the compound `CC(C)Cn1ncc(I)c1C(=O)Nc1ccn(-c2c(F)cccc2F)n1` [Compound I-1-323], the “log P” value is reported as 3.47.

For `Cn1ncc(I)c1C(=O)Nc1ccn(-c2c(F)cccc2F)n1` [Compound I-1-324], the “log P” value is on record as 2.46.

Consider `CCCn1ncc(I)c1C(=O)Nc1ccn(-c2c(F)cccc2F)n1` [Compound I-1-325], for which the “log P” value is given as 3.11.

`Cc1nnsc1C(=O)Nc1ccn(-c2c(F)cccc2F)n1` [Compound I-1-326]: the “log P” value is recorded as 2.15.

On to `Cc1cnoc1C(=O)Nc1ccn(-c2c(F)cccc2F)n1` [Compound I-1-327], for which the “log P” value is given as 2.24.

Take `Cn1cnnc1C(=O)Nc1ccn(-c2c(F)cccc2F)n1` [Compound I-1-328]: the “log P” value is reported as 1.51.

Consider `O=C(Nc1ccn(-c2c(F)cccc2F)n1)c1cc(Cl)ccc1C(F)(F)F` [Compound I-1-329], for which the “log P” value was determined as 3.11.

Turning to `O=C(Nc1ccn(-c2c(F)cccc2F)n1)c1ncncc1Cl` [Compound I-1-330], the “log P” value amounted to 2.14.

For the compound `O=C(Nc1ccn(-c2c(F)cccc2F)n1)c1cc(F)ccc1C(F)(F)F` [Compound I-1-331], the lipophilicity (log P) was found to be 2.80.

In the case of `Cc1snnc1C(=O)Nc1ccn(-c2c(F)cccc2F)n1` [Compound I-1-332], the “log P” value was 2.45.

`CC1=C(C(=O)Nc2ccn(-c3c(F)cccc3F)n2)CCCO1` [Compound I-1-333]: the “log P” value came out at 2.30.

As to `O=C(Nc1ccn(-c2ccccc2Br)n1)c1c(F)cccc1F` [Compound I-1-334], the “log P” value is 2.70.

`Cc1cccnc1C(=O)Nc1ccn(-c2ccccc2Br)n1` [Compound I-1-336]: the “log P” value was found to be 1.44.

Turning to `Cc1ccc(-n2ccc(NC(=O)c3ccccc3Br)n2)c(Cl)c1` [Compound I-1-338], the “log P” value is listed as 3.23.

As to `Cc1ccc(-n2ccc(NC(=O)c3ccccc3Cl)n2)c(Cl)c1` [Compound I-1-339], the “log P” value is given as 3.20.

Regarding `CCOc1cccc(Cl)c1-n1ccc(NC(=O)c2ccccc2C(F)(F)F)n1` [Compound I-1-340], the “log P” value is reported as 3.15.

Take `CS(=O)(=O)c1ccccc1C(=O)Nc1ccn(-c2ccccc2Cl)n1` [Compound I-1-341]: the “log P” value was 2.17.

Consider `Cc1cc(NC(=O)c2ccccc2S(C)(=O)=O)nn1-c1ccccc1Cl` [Compound I-1-342], for which the “log P” value was 1.82.

Regarding `Cc1cc(NC(=O)c2ccccc2OC(F)(F)F)nn1-c1ccccc1Cl` [Compound I-1-343], the “log P” value was 2.87.

As for `O=C(Nc1ccn(-c2ccccc2Cl)n1)c1cccnc1OC(F)(F)F` [Compound I-1-344], the “log P” value turned out to be 3.10.

As to `Cc1cn(-c2ccccc2Cl)nc1NC(=O)c1ccccc1C(F)(F)F` [Compound I-1-345], the “log P” value is reported as 3.01.

Consider `N#Cc1cn(-c2ccccc2Cl)nc1NC(=O)c1ccccc1C(F)(F)F` [Compound I-1-346], for which the “log P” value is given as 2.53.

As to `Cc1cc(NC(=O)c2ccccc2C(F)(F)F)nn1-c1ccccc1Cl` [Compound I-1-347], the “log P” value amounted to 2.58.

On to `Cc1cn(-c2ccccc2Cl)nc1NC(=O)c1cccnc1C(F)(F)F` [Compound I-1-348], for which the lipophilicity (log P) is 2.53.

On to `Cc1cc(NC(=O)c2cccnc2C(F)(F)F)nn1-c1ccccc1Cl` [Compound I-1-349], for which the “log P” value is 2.13.

For the compound `O=C(Nc1ccn(-c2ccccc2Cl)n1)c1cccc(Cl)c1Cl` [Compound I-1-350], the “log P” value is 3.20.

With `O=C(Nc1ccn(-c2ccccc2Cl)n1)c1c(Cl)cccc1Cl` [Compound I-1-351], the “log P” value is recorded as 3.00.

For the compound `Cc1cn(-c2ccccc2Cl)nc1NC(=O)c1c(F)cccc1F` [Compound I-1-352], the “log P” value was found to be 2.70.

On to `Cc1cccc(C)c1C(=O)Nc1ccn(-c2ccccc2Cl)n1` [Compound I-1-353], for which the “log P” value was 2.97.
